Measurements from US20240190849A1, “AMINOPYRIMIDINE COMPOUNDS AND METHODS OF THEIR USE” (TYRA BIOSCIENCES, INC., priority 2021, published 2024).

Legend:
Conditions in all cases: FGFR binding data
FGFR1 = molecular target: T1, FGFR1 (Homo sapiens, UniProt P11362); experiment: Kinase binding assay (kinase-tagged T7 phage, affinity beads, qPCR readout), FGFR1
T1 construct: made in house; host or cells: E. coli derived from BL21, infected with T7 phage
Protocol: (§1) Kinase-tagged T7 phage strains were prepared in an E. coli host derived from the BL21 strain. E. coli were grown to log-phase and infected with T7 phage and incubated with shaking at 32° C. until lysis. The lysates were centrifuged and filtered to remove cell debris. Streptavidin-coated magnetic beads were treated with biotinylated small molecule ligands for 30 minutes at room temperature to generate affinity resins for kinase assays. The liganded beads were blocked with excess biotin and washed with blocking buffer SeaBlock (Pierce), 1% BSA, 0.05% Tween 20, 1 mM DTT to remove unbound ligand and to reduce non-specific binding. Binding reactions were assembled by combining kinases, liganded affinity beads, and test compounds in 1× binding buffer (20% SeaBlock, 0.17×PBS, 0.05% Tween 20, 6 mM DTT).
(§2) Test compounds were prepared as 111× stocks in 100% DMSO. Kds were determined using an 11-point 3-fold compound dilution series with three DMSO control points. All compounds for Kd measurements are distributed by acoustic transfer (non-contact dispensing) in 100% DMSO. The compounds were then diluted directly into the assays such that the final concentration of DMSO was 0.9%. All reactions performed in polypropylene 384-well plate. Each was a final volume of 0.02 ml. The assay plates were incubated at room temperature with shaking for 1 hour and the affinity beads were washed with wash buffer (1×PBS, 0.05% Tween 20). The beads were then re-suspended in elution buffer (1×PBS, 0.05% Tween 20, 0.5 μM non-biotinylated affinity ligand) and incubated at room temperature with shaking for 30 minutes. The kinase concentration in the eluates was measured by qPCR.
(§3) Binding constants were calculated with a standard dose-response curve using the Hill equation: […]
(§4) The Hill Slope was set to −1. Curves were fitted using a non-linear least square fit with the Levenberg-Marquardt algorithm.

FGFR3 = molecular target: T2, FGFR3 (Homo sapiens, UniProt P22607); experiment: Kinase binding assay (kinase-tagged T7 phage, affinity beads, qPCR readout), FGFR3
T2 construct: made in house; host or cells: E. coli derived from BL21, infected with T7 phage
T2 sequence (P22607 23-806): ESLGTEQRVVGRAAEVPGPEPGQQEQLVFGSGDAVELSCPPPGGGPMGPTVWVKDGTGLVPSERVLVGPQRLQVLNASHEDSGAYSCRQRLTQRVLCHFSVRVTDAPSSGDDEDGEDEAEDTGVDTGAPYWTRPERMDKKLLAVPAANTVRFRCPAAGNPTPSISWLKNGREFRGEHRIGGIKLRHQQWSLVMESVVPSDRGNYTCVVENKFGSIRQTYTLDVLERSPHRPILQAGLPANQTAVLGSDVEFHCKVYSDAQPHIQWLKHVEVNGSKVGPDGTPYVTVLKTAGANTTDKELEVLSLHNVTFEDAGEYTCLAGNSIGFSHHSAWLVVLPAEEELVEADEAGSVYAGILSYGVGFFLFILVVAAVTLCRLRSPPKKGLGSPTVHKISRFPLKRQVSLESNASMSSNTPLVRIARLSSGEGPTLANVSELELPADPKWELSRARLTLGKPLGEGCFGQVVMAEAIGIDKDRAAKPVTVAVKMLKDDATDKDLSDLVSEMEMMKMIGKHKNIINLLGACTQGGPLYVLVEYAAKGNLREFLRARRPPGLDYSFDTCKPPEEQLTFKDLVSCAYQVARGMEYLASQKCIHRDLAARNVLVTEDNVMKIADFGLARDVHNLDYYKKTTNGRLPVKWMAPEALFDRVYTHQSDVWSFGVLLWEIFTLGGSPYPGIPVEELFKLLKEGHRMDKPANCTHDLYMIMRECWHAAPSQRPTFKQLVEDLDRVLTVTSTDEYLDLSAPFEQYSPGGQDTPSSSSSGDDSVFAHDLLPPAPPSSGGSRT
Protocol: as §1, §2, §3, §4

FGFR2 = molecular target: T3, FGFR2 (Homo sapiens, UniProt P21802); experiment: Kinase binding assay (kinase-tagged T7 phage, affinity beads, qPCR readout), FGFR2
T3 construct: made in house; host or cells: E. coli derived from BL21, infected with T7 phage
T3 sequence (P21802 22-821): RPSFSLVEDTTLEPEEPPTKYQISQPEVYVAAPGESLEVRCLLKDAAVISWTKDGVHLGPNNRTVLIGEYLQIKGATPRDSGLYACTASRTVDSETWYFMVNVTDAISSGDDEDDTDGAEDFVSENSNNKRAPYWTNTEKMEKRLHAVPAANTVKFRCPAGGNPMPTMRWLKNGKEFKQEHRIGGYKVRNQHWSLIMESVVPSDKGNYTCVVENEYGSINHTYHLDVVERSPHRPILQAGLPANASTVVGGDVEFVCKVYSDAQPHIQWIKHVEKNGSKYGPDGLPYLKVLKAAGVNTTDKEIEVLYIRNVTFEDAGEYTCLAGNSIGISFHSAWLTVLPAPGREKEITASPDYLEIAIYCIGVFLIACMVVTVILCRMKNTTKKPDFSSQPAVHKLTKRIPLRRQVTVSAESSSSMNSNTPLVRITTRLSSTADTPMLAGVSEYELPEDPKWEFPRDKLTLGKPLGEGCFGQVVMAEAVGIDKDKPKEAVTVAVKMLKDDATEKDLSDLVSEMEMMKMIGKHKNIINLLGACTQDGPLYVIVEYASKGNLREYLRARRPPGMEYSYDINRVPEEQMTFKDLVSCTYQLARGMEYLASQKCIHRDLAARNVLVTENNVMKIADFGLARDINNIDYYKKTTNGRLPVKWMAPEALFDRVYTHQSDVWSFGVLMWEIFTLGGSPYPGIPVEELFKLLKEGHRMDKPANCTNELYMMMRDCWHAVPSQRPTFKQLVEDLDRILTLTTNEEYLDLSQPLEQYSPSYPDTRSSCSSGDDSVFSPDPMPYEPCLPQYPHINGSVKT
Protocol: as §1, §2, §3, §4

FGFR3 (V555M) = molecular target: T4, FGFR3 (V555M) (Homo sapiens, UniProt P22607, V555M); experiment: Kinase binding assay (kinase-tagged T7 phage, affinity beads, qPCR readout), FGFR3 (V555M)
T4 construct: made in house; host or cells: E. coli derived from BL21, infected with T7 phage
T4 sequence (P22607 23-806 V555M): as the sequence (P22607 23-806) above, with V533M counted along it
Protocol: as §1, §2, §3, §4

T1 sequence (P11362 22-822): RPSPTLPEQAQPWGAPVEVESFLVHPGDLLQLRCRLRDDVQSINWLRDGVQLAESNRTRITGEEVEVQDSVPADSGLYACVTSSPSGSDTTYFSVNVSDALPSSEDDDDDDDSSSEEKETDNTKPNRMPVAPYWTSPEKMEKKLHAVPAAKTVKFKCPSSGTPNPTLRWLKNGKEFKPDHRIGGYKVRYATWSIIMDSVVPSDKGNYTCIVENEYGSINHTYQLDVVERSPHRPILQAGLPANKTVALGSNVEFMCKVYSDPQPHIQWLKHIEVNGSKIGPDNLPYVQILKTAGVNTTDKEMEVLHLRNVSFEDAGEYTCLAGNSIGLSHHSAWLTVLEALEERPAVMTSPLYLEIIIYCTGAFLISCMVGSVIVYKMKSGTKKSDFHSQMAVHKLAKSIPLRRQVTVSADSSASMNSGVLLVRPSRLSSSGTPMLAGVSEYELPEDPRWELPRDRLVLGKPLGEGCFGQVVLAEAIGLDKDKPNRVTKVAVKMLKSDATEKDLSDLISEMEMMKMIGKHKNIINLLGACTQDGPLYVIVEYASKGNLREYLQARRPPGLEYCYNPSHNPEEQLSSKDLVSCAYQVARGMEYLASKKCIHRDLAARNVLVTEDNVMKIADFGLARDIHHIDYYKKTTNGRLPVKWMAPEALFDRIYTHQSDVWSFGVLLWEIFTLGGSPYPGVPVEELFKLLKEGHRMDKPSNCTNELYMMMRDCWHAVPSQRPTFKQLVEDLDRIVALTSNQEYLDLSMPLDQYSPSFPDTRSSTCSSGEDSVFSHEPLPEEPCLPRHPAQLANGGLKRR

Row | Structure (SMILES) | Kd (FGFR1) [nM] | Kd (FGFR3) [nM] | Kd (FGFR2) [nM] | Kd (FGFR3 (V555M)) [nM]
1 | C=CS(=O)(=O)Nc1ccc2c(c1)c(C)cn2-c1nc(Nc2ccnn2C)ncc1C [Example 109, N-[3-methyl-1-[5-methyl-2-[(2-methylpyrazol-3-yl)amino]pyrimidin-4-yl]indol-5-yl]ethenesulfonamide] | 0.1 to 100 | 0.1 to 100 | 0.1 to 100 | 0.1 to 100
2 | C=C(F)C(=O)Nc1ccc2c(c1)c(C)cn2-c1nc(Nc2ccnn2C)ncc1C [Example 110, 2-fluoro-N-[3-methyl-1-[5-methyl-2-[(2-methylpyrazol-3-yl)amino]pyrimidin-4-yl]indol-5-yl]prop-2-enamide] | > 1000 | > 1000 | > 1000 | 250 to 1000
3 | C=CC(=O)Nc1ccc2c(-c3ccnc(Nc4cc(C)[nH]n4)n3)cn(C)c2c1 [Example 111, N-[1-methyl-3-[2-[(5-methyl-1H-pyrazol-3-yl)amino]pyrimidin-4-yl]indol-6-yl]prop-2-enamide] | > 1000 | > 1000 | > 1000 | > 1000
4 | C=CC(=O)Nc1ccc2c(-c3ccnc(Nc4ccn(C5CC5)n4)n3)cn(C)c2c1 [Example 112, N-[3-[2-[(1-cyclopropylpyrazol-3-yl)amino]pyrimidin-4-yl]-1-methyl-indol-6-yl]prop-2-enamide] | 100 to 250 | 0.1 to 100 | 100 to 250 | 0.1 to 100
5 | C=CC(=O)Nc1cnc2c(c1)c(C)cn2-c1nc(Nc2ccn(C3COC3)n2)ncc1C [Example 113, N-[3-methyl-1-[5-methyl-2-[[1-(oxetan-3-yl)pyrazol-3-yl]amino]-pyrimidin-4-yl]pyrrolo[2,3-b]pyridin-5-yl]prop-2-enamide] | 0.1 to 100 | 0.1 to 100 | 0.1 to 100 | 0.1 to 100
6 | C=CC(=O)Nc1cnc2c(c1)c(C)cn2-c1nc(Nc2ccn(CC)n2)ncc1C [Example 114, N-[1-[2-[(1-ethylpyrazol-3-yl)amino]-5-methyl-pyrimidin-4-yl]-3-methyl-pyrrolo[2,3-b]pyridin-5-yl]prop-2-enamide] | 0.1 to 100 | 0.1 to 100 | 0.1 to 100 | 0.1 to 100
7 | CCn1ccc(Nc2ncc(C)c(-n3cc(C)c4cc(NC(=O)/C=C/CN(C)C)cnc43)n2)n1 [Example 115, (E)-4-(dimethylamino)-N-[1-[2-[(1-ethylpyrazol-3-yl)amino]-5-methyl-pyrimidin-4-yl]-3-methyl-pyrrolo[2,3-b]pyridin-5-yl]but-2-enamide] | 100 to 250 | 0.1 to 100 | 100 to 250 | 0.1 to 100
8 | C=C(Cl)C(=O)Nc1cnc2c(c1)c(C)cn2-c1nc(Nc2ccn(C)n2)ncc1C [Example 116, 2-chloro-N-[3-methyl-1-[5-methyl-2-[(1-methylpyrazol-3-yl)amino]pyrimidin-4-yl]pyrrolo[2,3-b]pyridin-5-yl]prop-2-enamide] | 100 to 250 | 0.1 to 100 | 0.1 to 100 | 0.1 to 100
9 | C=C(F)C(=O)Nc1cnc2c(c1)c(C)cn2-c1nc(Nc2ccn(C)n2)ncc1C [Example 117, 2-fluoro-N-[3-methyl-1-[5-methyl-2-[(1-methylpyrazol-3-yl)amino]pyrimidin-4-yl]pyrrolo[2,3-b]pyridin-5-yl]prop-2-enamide] | > 1000 | > 1000 | > 1000 | > 1000
10 | C=C(C)C(=O)Nc1cnc2c(c1)c(C)cn2-c1nc(Nc2ccn(C)n2)ncc1C [Example 118, 2-methyl-N-[3-methyl-1-[5-methyl-2-[(1-methylpyrazol-3-yl)amino]pyrimidin-4-yl]pyrrolo[2,3-b]pyridin-5-yl]prop-2-enamide] | > 1000 | > 1000 | > 1000 | > 1000
11 | C=CC(=O)Nc1cnc2c(c1)c(C)cn2-c1nc(Nc2ccn(CCO)n2)ncc1C [Example 119, N-[1-[2-[[1-(2-hydroxyethyl)pyrazol-3-yl]amino]-5-methyl-pyrimidin-4-yl]-3-methyl-pyrrolo[2,3-b]pyridin-5-yl]prop-2-enamide] | 0.1 to 100 | 0.1 to 100 | 0.1 to 100 | 0.1 to 100
12 | C#CC(=O)Nc1ccc2c(c1)c(C)cn2-c1nc(Nc2cnn(CCO)c2)ncc1F [Example 129, N-[1-[5-fluoro-2-[[1-(2-hydroxyethyl)pyrazol-4-yl]amino]pyrimidin-4-yl]-3-methyl-indol-5-yl]prop-2-ynamide] | 0.1 to 100 | 0.1 to 100 | 0.1 to 100 | 0.1 to 100
13 | CC#CC(=O)Nc1ccc2c(c1)c(C)cn2-c1nc(Nc2ccnn2C)ncc1C [Example 130, N-[3-methyl-1-[5-methyl-2-[(2-methylpyrazol-3-yl)amino]pyrimidin-4-yl]indol-5-yl]but-2-ynamide] | > 1000 | > 1000 | 250 to 1000 | 250 to 1000
